Consider 18 compounds from EP3807270B1, “NOVEL HETEROARYL HETEROCYCLYL COMPOUNDS FOR THE TREATMENT OF AUTOIMMUNE DISEASE” (F. Hoffmann-La Roche AG, priority 2018, dated 2019).

The target in one data set is T1, CYP2D6 (Homo sapiens, UniProt P10635).
T1 construct: tissue BD-Gentest 452117; host or cells: human liver microsomes
Kind of data set: CYP inhibition assay in human liver microsome. It is filed as in vitro ADME. Conditions: human liver microsomes, probe dextromethorphan, 10µM test compound, dextromethorphan substrate, <0: not or weak inhibitor, read-out: CYP 2D6 inhibition %@10µM. A digest of the protocol:
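HLM mixed with CYP2D6 substrate, preincubated 10 min at 37 °C, started with NADPH regenerating system and run 10 min at 37 °C before acetonitrile quench. Metabolite measured by RapidFire MS/MS against D3-dextrorphan internal standard. % inhibition scaled between DMSO and concentrated-inhibitor controls.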

For another data set, the target named is T2, hTLR7 (Homo sapiens, UniProt Q9NYK1).
T2 sequence (Q9NYK1 27-1049): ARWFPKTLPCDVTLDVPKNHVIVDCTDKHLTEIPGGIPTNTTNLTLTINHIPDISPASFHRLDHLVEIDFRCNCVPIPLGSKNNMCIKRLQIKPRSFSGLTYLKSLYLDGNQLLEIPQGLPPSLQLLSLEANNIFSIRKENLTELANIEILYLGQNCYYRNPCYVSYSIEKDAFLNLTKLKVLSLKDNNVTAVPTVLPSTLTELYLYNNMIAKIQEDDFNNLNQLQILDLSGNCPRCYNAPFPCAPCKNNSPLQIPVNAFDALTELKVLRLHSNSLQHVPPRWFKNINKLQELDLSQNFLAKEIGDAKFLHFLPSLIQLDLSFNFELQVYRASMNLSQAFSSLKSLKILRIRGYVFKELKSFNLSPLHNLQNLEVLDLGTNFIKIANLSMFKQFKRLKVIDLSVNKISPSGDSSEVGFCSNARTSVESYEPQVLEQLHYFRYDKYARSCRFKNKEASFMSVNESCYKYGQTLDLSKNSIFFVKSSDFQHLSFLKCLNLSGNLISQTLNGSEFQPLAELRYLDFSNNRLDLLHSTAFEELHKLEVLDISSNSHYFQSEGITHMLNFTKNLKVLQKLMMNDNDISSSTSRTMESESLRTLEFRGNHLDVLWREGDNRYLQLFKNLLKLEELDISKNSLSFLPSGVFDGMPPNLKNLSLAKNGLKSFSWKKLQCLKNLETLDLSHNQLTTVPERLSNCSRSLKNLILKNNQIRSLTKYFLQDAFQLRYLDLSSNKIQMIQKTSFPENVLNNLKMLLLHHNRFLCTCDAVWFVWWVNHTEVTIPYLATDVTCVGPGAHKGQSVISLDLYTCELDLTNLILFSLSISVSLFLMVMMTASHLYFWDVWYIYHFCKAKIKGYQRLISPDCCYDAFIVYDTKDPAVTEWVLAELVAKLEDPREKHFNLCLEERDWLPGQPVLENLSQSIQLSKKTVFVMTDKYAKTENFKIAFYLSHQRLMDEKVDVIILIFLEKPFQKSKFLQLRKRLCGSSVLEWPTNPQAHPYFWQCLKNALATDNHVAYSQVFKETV
Kind of data set: HEK293-Blue-hTLR-7 cells assay (SEAP reporter, R848 stimulation). Format: cell-based. Conditions: HEK293-Blue-hTLR7 cells, R848, 20 hrs; read-out: HEK/hTLR7 IC50. The arrangement: host or cells: HEK293 (HEK-Blue). In outline: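 HEK293-Blue cells stably expressing human TLR7 with an NF-κB/AP-1-driven SEAP reporter were treated with serially diluted compound (1% DMSO final) plus R848 for 20 h at 37 °C. Supernatant SEAP activity was measured with QUANTI-Blue substrate after 2 h at 37 °C, with absorbance read at 620-655 nm.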

T1 sequence (P10635 whole entry): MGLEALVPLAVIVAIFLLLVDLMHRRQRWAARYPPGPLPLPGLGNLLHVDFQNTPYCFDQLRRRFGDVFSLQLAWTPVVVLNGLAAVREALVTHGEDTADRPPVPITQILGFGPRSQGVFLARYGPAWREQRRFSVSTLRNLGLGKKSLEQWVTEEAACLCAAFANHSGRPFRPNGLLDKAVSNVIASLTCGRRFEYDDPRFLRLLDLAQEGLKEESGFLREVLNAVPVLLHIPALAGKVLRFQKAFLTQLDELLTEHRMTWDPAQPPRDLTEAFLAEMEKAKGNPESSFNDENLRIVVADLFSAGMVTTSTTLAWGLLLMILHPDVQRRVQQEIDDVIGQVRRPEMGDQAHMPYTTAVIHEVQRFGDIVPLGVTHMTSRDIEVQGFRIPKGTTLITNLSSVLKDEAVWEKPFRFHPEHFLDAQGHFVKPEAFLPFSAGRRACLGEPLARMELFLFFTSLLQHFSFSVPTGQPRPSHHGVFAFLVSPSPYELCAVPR

With `C[C@@H]1CN(c2ccc(C#N)c3ncccc23)C[C@H](CN2CCN(c3ncc4c(n3)CCNC4)CC2)O1` [Example 29, 5-[(2R,6S)-2-methyl-6-[[4-(5,6,7,8-tetrahydropyrido[4,3-d]pyrimidin-2-yl)piperazin-1-yl]methyl]morpholin-4-yl]quinoline-8-carbonitrile], the inhibition at 10 min, 10 µM on CYP2D6 came to 16.5%. For the same compound, the IC50 at hTLR7 came out at 11 nM.

As for `C[C@@H]1CN(c2ccc(C#N)c3ncccc23)C[C@H](CN2CCN(c3ccc4c(n3)CNC4)CC2)O1` [Example 30, 5-[(2S,6R)-2-[[4-(6,7-dihydro-5H-pyrrolo[3,4-b]pyridin-2-yl)piperazin-1-yl]methyl]-6-methyl-morpholin-4-yl] quinoline-8-carbonitrile], at CYP2D6, the inhibition at 10 min, 10 µM is 17.5%. Further, at hTLR7, the IC50 came to 12 nM.

On to `C[C@@H]1CN(c2ccc(C#N)c3ncccc23)C[C@H](CN2CCC(Nc3ncc4c(n3)CNC4)C2)O1` (stereo partly drawn) [Example 32, 5-[(2S,6R)-2-[[3-(6,7-dihydro-5H-pyrrolo[3,4-d]pyrimidin-2-ylamino)pyrrolidin-1-yl]methyl]-6-methyl-morpholin-4-yl]quinoline-8-carbonitrile], for which the inhibition at 10 min, 10 µM on CYP2D6 was found to be 17.5%. For the same compound, on hTLR7, the IC50 turned out to be 69 nM.

For the compound `C[C@@H]1CN(c2ccc(C#N)c3ncccc23)C[C@H](CN2CCCN(c3nc4c(s3)CNCC4)CC2)O1` [Example 33, 5-[(2R,6S)-2-methyl-6-[[4-(4,5,6,7-tetrahydrothiazolo[5,4-c]pyridin-2-yl)-1,4-diazepan-1-yl]methyl]morpholin-4-yl]quinoline-8-carbonitrile], at CYP2D6, the inhibition at 10 min, 10 µM was -10.5%. Moreover, on hTLR7, the IC50 came to 17 nM.

On to `C[C@@H]1CN(c2ccc(C#N)c3ncccc23)C[C@H](CN2CCN(c3ccc4c(n3)CCN(C)C4)CC2)O1` [Example 34, 5-[(2R,6S)-2-methyl-6-[[4-(6-methyl-7,8-dihydro-5H-1,6-naphthyridin-2-yl)piperazin-1-yl]methyl]morpholin-4-yl]quinoline-8-carbonitrile], for which, on CYP2D6, the inhibition at 10 min, 10 µM was 4%. At hTLR7, the IC50 is 18 nM.

Regarding `C[C@@H]1CN(c2ccc(C#N)c3ncccc23)C[C@H](CN2CC3(CCN3c3ccc4c(n3)CCNC4)C2)O1` [Example 36, 5-[(2R,6S)-2-methyl-6-[[1-(5,6,7,8-tetrahydro-1,6-naphthyridin-2-yl)-1,6-diazaspiro[3.3]heptan-6-yl]methyl]morpholin-4-yl]quinoline-8-carbonitrile], the inhibition at 10 min, 10 µM on CYP2D6 was 13.5%. Further, the IC50 at hTLR7 came out at 26 nM.

As to `C[C@@H]1CN(c2ccc(C#N)c3ncccc23)C[C@H](CN2CCCN(c3ncc4c(n3)CCNC4)CC2)O1` [Example 39, 5-[(2R,6S)-2-methyl-6-[[4-(5,6,7,8-tetrahydropyrido[4,3-d]pyrimidin-2-yl)-1,4-diazepan-1-yl]methyl]morpholin-4-yl]quinoline-8-carbonitrile], the inhibition at 10 min, 10 µM on CYP2D6 came to 8.5%. In addition, the IC50 at hTLR7 came out at 8 nM.

Take `C[C@@H]1CN(c2ccc(C#N)c3ncccc23)C[C@H](CN2CCN(c3cnc4c(n3)CNCC4)CC2)O1` [Example 40, 5-[(2R,6S)-2-methyl-6-[[4-(5,6,7,8-tetrahydropyrido[3,4-b]pyrazin-3-yl)piperazin-1-yl]methyl]morpholin-4-yl]quinoline-8-carbonitrile]: the inhibition at 10 min, 10 µM at CYP2D6 stood at 8%. Moreover, on hTLR7, the IC50 turned out to be 7 nM.

Turning to `CC1NCc2ncc(N3CCN(C[C@H]4CN(c5ccc(C#N)c6ncccc56)C[C@@H](C)O4)CC3)cc21` (stereo partly drawn) [Example 41, 5-[(2R,6S)-2-methyl-6-[[4-(5-methyl-6,7-dihydro-5H-pyrrolo[3,4-b]pyridin-3-yl)piperazin-1-yl]methyl]morpholin-4-yl]quinoline-8-carbonitrile], the inhibition at 10 min, 10 µM at CYP2D6 is -2%. Moreover, on hTLR7, the IC50 is 28 nM.

Take `C[C@@H]1CN(c2ccc(C#N)c3ncccc23)C[C@H](CN2CC3(C2)CN(c2ccc4c(c2)CCNC4)CCO3)O1` [Example 44, 5-[(2R,6S)-2-methyl-6-[[8-(1,2,3,4-tetrahydroisoquinolin-6-yl)-5-oxa-2,8-diazaspiro[3.5]nonan-2-yl]methyl]morpholin-4-yl]quinoline-8-carbonitrile]: the inhibition at 10 min, 10 µM at CYP2D6 worked out at 4%. Besides, the IC50 on hTLR7 worked out at 11 nM.

As for `C[C@@H]1CN(c2ccc(C#N)c3ncccc23)C[C@H](CN2CC3(C2)CN(c2ccc4c(n2)CNCC4)CCO3)O1` [Example 45, 5-[(2R,6S)-2-methyl-6-[[8-(5,6,7,8-tetrahydro-1,7-naphthyridin-2-yl)-5-oxa-2,8-diazaspiro[3.5]nonan-2-yl]methyl]morpholin-4-yl]quinoline-8-carbonitrile], the inhibition at 10 min, 10 µM at CYP2D6 amounted to 9%. On hTLR7, the IC50 amounted to 9 nM.

Turning to `C[C@@H]1CN(c2ccc(C#N)c3ncccc23)C[C@H](CN2CC3(C2)CN(c2cnc4c(c2)CCNC4)CCO3)O1` [Example 46, 5-[(2R,6S)-2-methyl-6-[[8-(5,6,7,8-tetrahydro-1,7-naphthyridin-3-yl)-5-oxa-2,8-diazaspiro[3.5]nonan-2-yl]methyl]morpholin-4-yl]quinoline-8-carbonitrile], the inhibition at 10 min, 10 µM on CYP2D6 amounted to 12%. Moreover, the IC50 on hTLR7 was 12 nM.

Turning to `C[C@@H]1CN(c2ccc(C#N)c3ncccc23)C[C@H](CN2CC3(C2)CN(c2cnc4c(c2)CNCC4)CCO3)O1` [Example 47, 5-[(2R,6S)-2-methyl-6-[[8-(5,6,7,8-tetrahydro-1,6-naphthyridin-3-yl)-5-oxa-2,8-diazaspiro[3.5]nonan-2-yl]methyl]morpholin-4-yl]quinoline-8-carbonitrile], on CYP2D6, the inhibition at 10 min, 10 µM was -21.5%. Further, on hTLR7, the IC50 was found to be 12 nM.

As for `C[C@@H]1CN(c2ccc(C#N)c3ncccc23)C[C@H](CN2CC3(C2)CN(c2cc4c(cn2)CCNC4)CCO3)O1` [Example 48, 5-[(2R,6S)-2-methyl-6-[[8-(5,6,7,8-tetrahydro-2,6-naphthyridin-3-yl)-5-oxa-2,8-diazaspiro[3.5]nonan-2-yl]methyl]morpholin-4-yl]quinoline-8-carbonitrile], at CYP2D6, the inhibition at 10 min, 10 µM is -12%. In addition, the IC50 on hTLR7 was determined as 5 nM.

Regarding `C[C@@H]1CN(c2ccc(C#N)c3ncccc23)C[C@H](CN2CC3(C2)CN(c2ccc4c(n2)CCNC4)CCO3)O1` [Example 49, 5-[(2R,6S)-2-methyl-6-[[8-(5,6,7,8-tetrahydro-1,6-naphthyridin-2-yl)-5-oxa-2,8-diazaspiro[3.5]nonan-2-yl]methyl]morpholin-4-yl]quinoline-8-carbonitrile], the inhibition at 10 min, 10 µM on CYP2D6 is 22%. At hTLR7, the IC50 is 5 nM.

For the compound `C[C@@H]1CN(c2ccc(C#N)c3ncccc23)C[C@H](CN2CC3(C2)CN(c2cnc4c(n2)CCNC4)CCO3)O1` [Example 50, 5-[(2R,6S)-2-methyl-6-[[8-(5,6,7,8-tetrahydropyrido[3,4-b]pyrazin-2-yl)-5-oxa-2,8-diazaspiro [3.5]nonan-2-yl]methyl]morpholin-4-yl] quinoline-8-carbonitrile], the inhibition at 10 min, 10 µM on CYP2D6 came out at 10.5%. For the same compound, on hTLR7, the IC50 came out at 4 nM.

In the case of `C[C@@H]1CN(c2ccc(C#N)c3ncccc23)C[C@H](CN2C[C@@H]3[C@@H](C2)OCCN3c2cnc3c(c2)CCNC3)O1` [Example 52, 5-[(2S,6R)-2-[[(4aR,7aR)-4-(5,6,7,8-tetrahydro-1,7-naphthyridin-3-yl)-2,3,4a,5,7,7a-hexahydropyrrolo[3,4-b][1,4]oxazin-6-yl]methyl]-6-methylmorpholin-4-yl]quinoline-8-carbonitrile], the inhibition at 10 min, 10 µM on CYP2D6 is 5%. Further, at hTLR7, the IC50 was less than 3 nM.

Turning to `C[C@@H]1CN(c2ccc(C#N)c3ncccc23)C[C@H](CN2CCN(c3cnc4c(c3)CNCC4)C(C)(C)C2)O1` [Example 56, 5-[(2S,6R)-2-[[3,3-dimethyl-4-(5,6,7,8-tetrahydro-1,6-naphthyridin-3-yl)piperazin-1-yl]methyl]-6-methyl-morpholin-4-yl]quinoline-8-carbonitrile], the inhibition at 10 min, 10 µM at CYP2D6 was -2.5%. Further, the IC50 on hTLR7 was 12 nM.

By inhibition is commonly meant the change of the read-out against control, counted positive when it falls.
